# Results: ChEMBL document CHEMBL1687752, “Impact of antifungal prophylaxis on colonization and azole susceptibility of Candida species” (2009)
# Tests used:
# Format in all cases: functional
# Nakaseomyces glabratus [1] = assay: Antifungal activity against 29 days cultured Candida glabrata isolated from neutropenic subject with AML or MDS pharynx after 48 days of prophylaxis by broth microdilution method
# Nakaseomyces glabratus [2] = assay: Antifungal activity against 19 days cultured Candida glabrata isolated from HSCT recipient with acute or chronic GVHD mouth after 17 days of prophylaxis by broth microdilution method
# Pichia kudriavzevii [3] = assay: Antifungal activity against 13 days cultured Candida krusei isolated from invasive fungal infected subject blood after 12 days of prophylaxis by broth microdilution method
# Pichia kudriavzevii [4] = assay: Antifungal activity against 14 days cultured Candida krusei isolated from neutropenic subject with AML or MDS stool after 12 days of prophylaxis by broth microdilution method
# Nakaseomyces glabratus [5] = assay: Antifungal activity against 1 day cultured Candida glabrata isolated from neutropenic subject with AML or MDS stool receiving antifungal therapy for 25 days after 3 days of prophylaxis by broth microdilution method
# Candida tropicalis = assay: Antifungal activity against -3 days cultured Candida tropicalis isolated from neutropenic subject with AML or MDS stool receiving antifungal therapy for 45 days after 24 days of prophylaxis by broth microdilution method
# Nakaseomyces glabratus [6] = assay: Antifungal activity against 15 days cultured Candida glabrata isolated from HSCT recipient with acute or chronic GVHD mouth receiving antifungal therapy for 168 days after 113 days of prophylaxis by broth microdilution method
# Nakaseomyces glabratus [7] = assay: Antifungal activity against 177 days cultured Candida glabrata isolated from HSCT recipient with acute or chronic GVHD mouth receiving antifungal therapy for 172 days after 114 days of prophylaxis by broth microdilution method
# Pichia kudriavzevii [8] = assay: Antifungal activity against 1 day cultured Candida krusei isolated from neutropenic subject with AML or MDS pharynx receiving antifungal therapy for 19 days after 6 days of prophylaxis by broth microdilution method
# Pichia kudriavzevii [9] = assay: Antifungal activity against 16 days cultured Candida krusei isolated from neutropenic subject with AML or MDS pharynx receiving antifungal therapy for 19 days after 6 days of prophylaxis by broth microdilution method
# Candida albicans [10] = assay: Antifungal activity against Candida albicans isolated from HSCT recipients with acute or chronic GVHD receiving posaconazole assessed as maximum MIC by broth microdilution method
# Pichia kudriavzevii [11] = assay: Antifungal activity against Candida krusei isolated from HSCT recipients with acute or chronic GVHD prior to initiation of posaconazole therapy assessed as maximum MIC by broth microdilution method
# Nakaseomyces glabratus [12] = assay: Antifungal activity against Candida glabrata isolated from neutropenic subjects with AML or MDS receiving posaconazole by broth microdilution method
# Candida albicans [13] = assay: Antifungal activity against Candida albicans isolated from neutropenic subjects with AML or MDS prior to initiation of posaconazole therapy assessed as maximum MIC by broth microdilution method
# Nakaseomyces glabratus [14] = assay: Antifungal activity against Candida glabrata isolated from neutropenic subjects with AML or MDS prior to initiation of posaconazole therapy assessed as maximum MIC by broth microdilution method
# Pichia kudriavzevii [15] = assay: Antifungal activity against Candida krusei isolated from neutropenic subjects with AML or MDS prior to initiation of posaconazole therapy assessed as maximum MIC by broth microdilution method
# Nakaseomyces glabratus [16] = assay: Antifungal activity against Candida glabrata isolated from HSCT recipients with acute or chronic GVHD prior to initiation of fluconazole therapy by broth microdilution method
# Nakaseomyces glabratus [17] = assay: Antifungal activity against Candida glabrata isolated from HSCT recipients with acute or chronic GVHD receiving fluconazole by broth microdilution method
# Pichia kudriavzevii [18] = assay: Antifungal activity against Candida krusei isolated from HSCT recipients with acute or chronic GVHD prior to initiation of fluconazole therapy assessed as maximum MIC by broth microdilution method
# Pichia kudriavzevii [19] = assay: Antifungal activity against Candida krusei isolated from HSCT recipients with acute or chronic GVHD receiving fluconazole assessed as maximum MIC by broth microdilution method
# Candida albicans [20] = assay: Antifungal activity against Candida albicans isolated from neutropenic subjects with AML or MDS prior to initiation of fluconazole therapy by broth microdilution method
# Candida albicans [21] = assay: Antifungal activity against Candida albicans isolated from neutropenic subjects with AML or MDS prior to initiation of fluconazole therapy assessed as maximum MIC by broth microdilution method
# Nakaseomyces glabratus [22] = assay: Antifungal activity against Candida glabrata isolated from neutropenic subjects with AML or MDS prior to initiation of fluconazole therapy by broth microdilution method
# Nakaseomyces glabratus [23] = assay: Antifungal activity against 29 days cultured Candida glabrata isolated from neutropenic subject with AML or MDS stool after 48 days of prophylaxis by broth microdilution method
# Candida albicans [24] = assay: Antifungal activity against Candida albicans isolated from HSCT recipient 301 with acute or chronic GVHD mouth after 114 days prophylaxis by broth microdilution method
# Candida albicans [25] = assay: Antifungal activity against Candida albicans isolated from HSCT recipient 301 with acute or chronic GVHD mouth receiving antifungal drug after 114 days prophylaxis by broth microdilution method
# Nakaseomyces glabratus [26] = assay: Antifungal activity against Candida glabrata isolated from neutropenic subject 1102 with AML or MDS stool receiving antifungal drug after 26 days prophylaxis by broth microdilution method; settings: 624 h
# Nakaseomyces glabratus [27] = assay: Antifungal activity against Candida glabrata isolated from neutropenic subject 1318 with AML or MDS stool receiving antifungal drug after 36 days prophylaxis by broth microdilution method
# Nakaseomyces glabratus [28] = assay: Antifungal activity against Candida glabrata isolated from HSCT recipient 474 with acute or chronic GVHD mouth after 124 days prophylaxis by broth microdilution method
# Nakaseomyces glabratus [29] = assay: Antifungal activity against Candida glabrata isolated from HSCT recipient 975 with acute or chronic GVHD mouth after 112 days prophylaxis by broth microdilution method
# Candida albicans [30] = assay: Antifungal activity against Candida albicans isolated from HSCT recipient 031 with acute or chronic GVHD mouth receiving antifungal drug after 109 days prophylaxis by broth microdilution method
# Candida albicans [31] = assay: Antifungal activity against Candida albicans isolated from HSCT recipient 462 with acute or chronic GVHD mouth receiving antifungal drug after 112 days prophylaxis by broth microdilution method
# Candida albicans [32] = assay: Antifungal activity against Candida albicans isolated from HSCT recipient 042 with acute or chronic GVHD mouth receiving antifungal drug after 112 days prophylaxis by broth microdilution method
# Candida albicans [33] = assay: Antifungal activity against Candida albicans isolated from HSCT recipient 928 with acute or chronic GVHD mouth receiving antifungal drug after 112 days prophylaxis by broth microdilution method
# Nakaseomyces glabratus [34] = assay: Antifungal activity against Candida glabrata isolated from neutropenic subject 1331 with AML or MDS pharynx after 21 days prophylaxis by broth microdilution method; settings: 504 h
# Nakaseomyces glabratus [35] = assay: Antifungal activity against Candida glabrata isolated from HSCT recipient 002 with acute or chronic GVHD mouth after 116 days prophylaxis by broth microdilution method
# Nakaseomyces glabratus [36] = assay: Antifungal activity against Candida glabrata isolated from HSCT recipient 002 with acute or chronic GVHD mouth receiving antifungal drug after 116 days prophylaxis by broth microdilution method
# Nakaseomyces glabratus [37] = assay: Antifungal activity against Candida glabrata isolated from HSCT recipient 497 with acute or chronic GVHD mouth receiving antifungal drug after 114 days prophylaxis by broth microdilution method
# Nakaseomyces glabratus [38] = assay: Antifungal activity against Candida glabrata isolated from HSCT recipient 807 with acute or chronic GVHD mouth receiving antifungal drug after 114 days prophylaxis by broth microdilution method
smiles,measurement,setting,value
OC(Cn1cncn1)(Cn1cncn1)c1ccc(F)cc1F [FLUCONAZOLE],MIC,Nakaseomyces glabratus [1],> 64 µg/mL
same,MIC,Nakaseomyces glabratus [2],> 64 µg/mL
same,MIC,Pichia kudriavzevii [3],> 64 µg/mL
same,MIC,Pichia kudriavzevii [4],64 µg/mL
same,MIC,Nakaseomyces glabratus [5],16 µg/mL
same,MIC,Candida tropicalis,0.25 µg/mL
same,MIC,Nakaseomyces glabratus [6],64 µg/mL
same,MIC,Nakaseomyces glabratus [7],32 µg/mL
same,MIC,Pichia kudriavzevii [8],32 µg/mL
same,MIC,Pichia kudriavzevii [9],64 µg/mL
same,MIC,Candida albicans [10],64 µg/mL
same,MIC,Pichia kudriavzevii [11],64 µg/mL
same,MIC50,Nakaseomyces glabratus [12],8 µg/mL
same,MIC90,Nakaseomyces glabratus [12],64 µg/mL
same,MIC,Candida albicans [13],2 µg/mL
same,MIC,Nakaseomyces glabratus [14],32 µg/mL
same,MIC,Pichia kudriavzevii [15],32 µg/mL
same,MIC50,Nakaseomyces glabratus [16],16 µg/mL
same,MIC90,Nakaseomyces glabratus [16],64 µg/mL
same,MIC50,Nakaseomyces glabratus [17],32 µg/mL
same,MIC90,Nakaseomyces glabratus [17],64 µg/mL
same,MIC,Pichia kudriavzevii [18],64 µg/mL
same,MIC,Pichia kudriavzevii [19],64 µg/mL
same,MIC50,Candida albicans [20],0.125 µg/mL
same,MIC90,Candida albicans [20],0.25 µg/mL
same,MIC,Candida albicans [21],1 µg/mL
same,MIC50,Nakaseomyces glabratus [22],8 µg/mL
same,MIC90,Nakaseomyces glabratus [22],16 µg/mL
same,MIC,Nakaseomyces glabratus [23],8 µg/mL
same,MIC,Candida albicans [24],< 0.125 µg/mL
same,MIC,Candida albicans [25],0.25 µg/mL
same,MIC,Nakaseomyces glabratus [26],> 64 µg/mL
same,MIC,Nakaseomyces glabratus [27],> 64 µg/mL
same,MIC,Nakaseomyces glabratus [28],16 µg/mL
same,MIC,Nakaseomyces glabratus [29],4 µg/mL
same,MIC,Candida albicans [30],128 µg/mL
same,MIC,Candida albicans [31],8 µg/mL
same,MIC,Candida albicans [32],1 µg/mL
same,MIC,Candida albicans [33],128 µg/mL
same,MIC,Nakaseomyces glabratus [34],8 µg/mL
same,MIC,Nakaseomyces glabratus [35],16 µg/mL
same,MIC,Nakaseomyces glabratus [36],64 µg/mL
same,MIC,Nakaseomyces glabratus [37],32 µg/mL
same,MIC,Nakaseomyces glabratus [38],128 µg/mL
CCC(C)n1ncn(-c2ccc(N3CCN(c4ccc(OCC5COC(Cn6cncn6)(c6ccc(Cl)cc6Cl)O5)cc4)CC3)cc2)c1=O (stereo not drawn) [ITRACONAZOLE],MIC,Nakaseomyces glabratus [1],8 µg/mL
same,MIC,Nakaseomyces glabratus [2],> 8 µg/mL
same,MIC,Pichia kudriavzevii [3],0.25 µg/mL
same,MIC,Pichia kudriavzevii [4],0.25 µg/mL
same,MIC,Nakaseomyces glabratus [5],8 µg/mL
same,MIC,Candida tropicalis,0.03 µg/mL
same,MIC,Nakaseomyces glabratus [6],4 µg/mL
same,MIC,Nakaseomyces glabratus [7],1 µg/mL
same,MIC,Pichia kudriavzevii [8],0.125 µg/mL
same,MIC,Pichia kudriavzevii [9],0.5 µg/mL
same,MIC,Candida albicans [10],0.25 µg/mL
same,MIC,Pichia kudriavzevii [11],16 µg/mL
same,MIC50,Nakaseomyces glabratus [12],0.5 µg/mL
same,MIC90,Nakaseomyces glabratus [12],8 µg/mL
same,MIC,Candida albicans [13],0.03 µg/mL
same,MIC,Nakaseomyces glabratus [14],8 µg/mL
same,MIC,Pichia kudriavzevii [15],0.5 µg/mL
same,MIC50,Nakaseomyces glabratus [16],2 µg/mL
same,MIC90,Nakaseomyces glabratus [16],16 µg/mL
same,MIC50,Nakaseomyces glabratus [17],1 µg/mL
same,MIC90,Nakaseomyces glabratus [17],16 µg/mL
same,MIC,Pichia kudriavzevii [18],1 µg/mL
same,MIC,Pichia kudriavzevii [19],16 µg/mL
same,MIC50,Candida albicans [20],0.015 µg/mL
same,MIC90,Candida albicans [20],0.015 µg/mL
same,MIC,Candida albicans [21],0.125 µg/mL
same,MIC50,Nakaseomyces glabratus [22],0.5 µg/mL
same,MIC90,Nakaseomyces glabratus [22],2 µg/mL
same,MIC,Nakaseomyces glabratus [23],1 µg/mL
same,MIC,Candida albicans [24],< 0.015 µg/mL
same,MIC,Candida albicans [25],0.25 µg/mL
same,MIC,Nakaseomyces glabratus [26],> 8 µg/mL
same,MIC,Nakaseomyces glabratus [27],> 8 µg/mL
same,MIC,Nakaseomyces glabratus [28],4 µg/mL
same,MIC,Nakaseomyces glabratus [29],0.25 µg/mL
same,MIC,Candida albicans [30],0.06 µg/mL
same,MIC,Candida albicans [31],0.03 µg/mL
same,MIC,Candida albicans [32],0.06 µg/mL
same,MIC,Candida albicans [33],> 8 µg/mL
same,MIC,Nakaseomyces glabratus [34],1 µg/mL
same,MIC,Nakaseomyces glabratus [35],1 µg/mL
same,MIC,Nakaseomyces glabratus [36],> 8 µg/mL
same,MIC,Nakaseomyces glabratus [37],8 µg/mL
same,MIC,Nakaseomyces glabratus [38],> 8 µg/mL
